Test results taken from patent US4695545A, “Culture and process for producing A41030 antibiotics” (Eli Lilly and Company, priority 1984, dated 1987).
Converted amounts (≈) assume the structure as drawn.

Key:
[1] = test system: Bacteroides melaninogenicus; assay: MIC anaerobic bacteria, agar-dilution; format: cell-based; settings: Bacteroides melaninogenicus 2736
Streptococcus pyogenes = assay: MIC aerobic bacteria, standard agar-dilution assay; format: cell-based; settings: Streptococcus pyogenes C203, 24 hours
Clostridium septicum = assay: MIC anaerobic bacteria, agar-dilution; format: cell-based; settings: Clostridium septicum 1128
Eubacterium aerofaciens = assay: MIC anaerobic bacteria, agar-dilution; format: cell-based; settings: Eubacterium aerofaciens 1235
Clostridium difficile [2] = assay: MIC anaerobic bacteria, agar-dilution; format: cell-based; settings: Clostridium difficile 2994; agar-dilution (Table 9)
Solubility in solvents = format: physicochemical; settings: qualitative
Excerpt: As many as seven antibiotic factors are recovered from the fermentation and are obtained as a mixture, the A41030 complex. It will be recognized that the ratio of the factors in the A41030 complex will vary, depending upon the fermentation conditions used. The individual factors A, B, C, D, E, F, and G are separated and isolated as individual compounds, as hereinafter described.

Bacteroides fragilis = assay: MIC anaerobic bacteria, agar-dilution; format: cell-based
[3] = test system: Staphylococcus epidermidis; assay: MIC aerobic bacteria, standard agar-dilution assay; format: cell-based
[4] = test system: Fusobacterium necrophorum; assay: MIC anaerobic bacteria, agar-dilution; format: cell-based; settings: Fusobacterium necrophorum 6054A
[5] = test system: Streptococcus sp. Group D; assay: MIC aerobic bacteria, standard agar-dilution assay; format: cell-based
Streptococcus pneumoniae = assay: MIC aerobic bacteria, standard agar-dilution assay; format: cell-based; settings: Streptococcus pneumoniae Park I, 24 hours
[6] = test system: Peptococcus asaccharolyticus; assay: MIC anaerobic bacteria, agar-dilution; format: cell-based; settings: Peptococcus asaccharolyticus 1302
Bacteroides vulgatis = assay: MIC anaerobic bacteria, agar-dilution; format: cell-based; settings: Bacteroides vulgatis 1211
Haemophilus influenzae = assay: MIC aerobic bacteria, standard agar-dilution assay; format: cell-based
Propionibacterium acnes [7] = assay: MIC anaerobic bacteria, agar-dilution; format: cell-based; settings: Propionibacterium acnes 79; agar-dilution (Table 9)
Peptococcus prevoti = assay: MIC anaerobic bacteria, agar-dilution; format: cell-based; settings: Peptococcus prevoti 1281
Clostridium perfringens = format: cell-based; settings: Clostridium perfringens 81; agar-dilution
[8] = test system: Bacteroides thetaiotaomicron; assay: MIC anaerobic bacteria, agar-dilution; format: cell-based; settings: Bacteroides thetaiotaomicron 1438
[9] = test system: Peptostreptococcus anaerobius; assay: MIC anaerobic bacteria, agar-dilution; format: cell-based; settings: Peptostreptococcus anaerobius 1428
Bacteroides corrodens = assay: MIC anaerobic bacteria, agar-dilution; format: cell-based; settings: Bacteroides corrodens 1874
[10] = test system: Peptostreptococcus intermedius; assay: MIC anaerobic bacteria, agar-dilution; format: cell-based; settings: Peptostreptococcus intermedius 1264
Klebsiella pneumoniae = assay: MIC aerobic bacteria, standard agar-dilution assay; format: cell-based; settings: Klebsiella pneumoniae X26, 24 hours
Clostridium difficile [11] = assay: MIC against Clostridium difficile strains, agar-dilution; format: cell-based
Excerpt: The A41030 antibiotic factors A, B, C, D, E, F, and G, are also active against a number of strains of Clostridium difficile, as determined by the agardilution method.

Fusobacterium symbiosum = assay: MIC anaerobic bacteria, agar-dilution; format: cell-based; settings: Fusobacterium symbiosum 1470
[12] = mice
Propionibacterium acnes [13] = assay: MIC against Propionibacterium acnes strains, 24-hour agar-dilution; format: cell-based
Excerpt: Antibiotic A41030 factors A, B and C have been tested and found to be active against a genus of anaerobic bacteria identified as Propionibacterium acnes.

Staphylococcus aureus = assay: MIC aerobic bacteria, standard agar-dilution assay; format: cell-based; settings: Staphylococcus aureus S13E; agar-dilution, 24 hours
pseudorabies = format: cell-based
[14] = Electrometric titration (pKa); format: physicochemical; settings: electrometric titration in 66% dimethylformamide in water; stated as possible
Excerpt: Antibiotic A41030 factor A is a white, crystalline solid.

S. pyogenes = assay: In vivo oral activity against S. pyogenes in mice
[15] = Staphylococcus epidermidis EPI2, 24 hours
[16] = Streptococcus sp. Group D 9960, 24 hours
[17] = Streptococcus sp. Group D X66, 24 hours

## A41030 factor G
[1]
  MIC: 64 µg/mL
Streptococcus pyogenes
  MIC: 2 µg/mL
Clostridium septicum
  MIC: 2 µg/mL
Eubacterium aerofaciens
  MIC: 2 µg/mL
Clostridium difficile [2]
  MIC: 2 µg/mL
Solubility in solvents
  solubility (solvents): soluble in the same solvents as is factor A
Bacteroides fragilis; Bacteroides fragilis 111
  MIC: 32 µg/mL
Bacteroides fragilis; Bacteroides fragilis 1877
  MIC: 32 µg/mL
Bacteroides fragilis; Bacteroides fragilis 1936B
  MIC: 64 µg/mL
[3]; Staphylococcus epidermidis EPI1, 24 hours
  MIC: 0.5 µg/mL
[3]; [15]
  MIC: 0.5 µg/mL
[4]
  MIC: 2 µg/mL
[5]; [16]
  MIC: 4 µg/mL
[5]; [17]
  MIC: 4 µg/mL
Streptococcus pneumoniae
  MIC: 2 µg/mL
[6]
  MIC: 1.0 µg/mL
Bacteroides vulgatis
  MIC: 64 µg/mL
Haemophilus influenzae; Haemophilus influenzae 76, 24 hours
  MIC: 32 µg/mL
Haemophilus influenzae; Haemophilus influenzae C.L., 24 hours
  MIC: 32 µg/mL
Propionibacterium acnes [7]
  MIC: 1.0 µg/mL
Peptococcus prevoti
  MIC: 2 µg/mL
Clostridium perfringens
  MIC: 2 µg/mL
[8]
  MIC: 64 µg/mL
[9]
  MIC: ≤ 0.5 µg/mL
Bacteroides corrodens
  MIC: 32 µg/mL
[10]
  MIC: 2 µg/mL
Klebsiella pneumoniae
  MIC: 64 µg/mL
Clostridium difficile [11]; Clostridium difficile 78
  MIC: 1.0 µg/mL
Clostridium difficile [11]; Clostridium difficile 107B
  MIC: 1.0 µg/mL
Clostridium difficile [11]; Clostridium difficile 111F
  MIC: 1.0 µg/mL
Clostridium difficile [11]; Clostridium difficile 1153
  MIC: 1.0 µg/mL
Clostridium difficile [11]; Clostridium difficile 2634
  MIC: 1.0 µg/mL
Clostridium difficile [11]; Clostridium difficile 3424-5B
  MIC: 1.0 µg/mL
Clostridium difficile [11]; Clostridium difficile 3816
  MIC: 1.0 µg/mL
Clostridium difficile [11]; Clostridium difficile 3950D
  MIC: 1.0 µg/mL
Clostridium difficile [11]; Clostridium difficile 6890
  MIC: 1.0 µg/mL
Clostridium difficile [11]; Clostridium difficile 8484
  MIC: 1.0 µg/mL
Clostridium difficile [11]; Clostridium difficile A-194
  MIC: 1.0 µg/mL
Clostridium difficile [11]; Clostridium difficile A-195
  MIC: 1.0 µg/mL
Clostridium difficile [11]; Clostridium difficile A-196
  MIC: 1.0 µg/mL
Clostridium difficile [11]; Clostridium difficile A-279
  MIC: 1.0 µg/mL
Clostridium difficile [11]; Clostridium difficile A-280
  MIC: 1.0 µg/mL
Clostridium difficile [11]; Clostridium difficile A-281
  MIC: 1.0 µg/mL
Clostridium difficile [11]; Clostridium difficile WAL-2112
  MIC: 1.0 µg/mL
Clostridium difficile [11]; Clostridium difficile WAL-3657
  MIC: 1.0 µg/mL
Clostridium difficile [11]; Clostridium difficile WAL-4268
  MIC: 1.0 µg/mL
Fusobacterium symbiosum
  MIC: 2 µg/mL

## NC1C(=O)NC2Cc3ccc(c(Cl)c3)Oc3cc4cc(c3O)Oc3ccc(cc3Cl)C(O)C3NC(=O)C(NC(=O)C4NC(=O)C(NC2=O)c2cc(O)cc(c2)Oc2cc1ccc2O)c1cc(Cl)c(O)c(c1)-c1c(O)cc(O)cc1C(C(=O)O)NC3=O (centres unmarked) [factor A, A41030 factor A]
[1]
  MIC: 4 µg/mL (≈ 3.24 µM)
[12]
  LD50: > 300 mg/kg
  acute toxicity: > 300 mg/kg
Propionibacterium acnes [13]; P. acnes strain 104
  MIC: 0.25 µg/mL (≈ 0.203 µM)
Propionibacterium acnes [13]; P. acnes strain 107
  MIC: 0.06 µg/mL (≈ 0.0486 µM)
Propionibacterium acnes [13]; P. acnes strain 5170
  MIC: ≤ 0.03 µg/mL
Propionibacterium acnes [13]; P. acnes strain 5176
  MIC: ≤ 0.03 µg/mL
Propionibacterium acnes [13]; P. acnes strain 5187
  MIC: ≤ 0.03 µg/mL
Propionibacterium acnes [13]; P. acnes strain 5197
  MIC: ≤ 0.03 µg/mL
Propionibacterium acnes [13]; P. acnes strain 5226
  MIC: 0.5 µg/mL (≈ 0.405 µM)
Propionibacterium acnes [13]; P. acnes strain 5227
  MIC: ≤ 0.03 µg/mL
Propionibacterium acnes [13]; P. acnes strain 5228
  MIC: 1.0 µg/mL (≈ 0.811 µM)
Propionibacterium acnes [13]; P. acnes strain 5229
  MIC: 0.5 µg/mL (≈ 0.405 µM)
Propionibacterium acnes [13]; P. acnes strain 5246
  MIC: 0.06 µg/mL (≈ 0.0486 µM)
Propionibacterium acnes [13]; P. acnes strain 5292
  MIC: 0.06 µg/mL (≈ 0.0486 µM)
Staphylococcus aureus
  MIC: 0.25 µg/mL (≈ 0.203 µM)
pseudorabies
  concentration at which activity in vitro was shown: 20 µg/mL
Streptococcus pyogenes
  MIC: 0.5 µg/mL (≈ 0.405 µM)
Clostridium septicum
  MIC: 2 µg/mL (≈ 1.62 µM)
Clostridium difficile [2]
  MIC: 32 µg/mL (≈ 25.9 µM)
Solubility in solvents
  solubility (solvents): soluble in alcohol-water mixtures, in dimethylsulfoxide, in dimethylformamide, in dimethylsulfoxide-water mixtures, in dimethylformamide-water mixtures, in dilute aqueous acid, and in dilute aqueous base
Bacteroides fragilis; Bacteroides fragilis 1877
  MIC: 32 µg/mL (≈ 25.9 µM)
Bacteroides fragilis; Bacteroides fragilis 1936B
  MIC: 64 µg/mL (≈ 51.9 µM)
[3]; [15]
  MIC: 1 µg/mL (≈ 0.811 µM)
[4]
  MIC: 8 µg/mL (≈ 6.49 µM)
[14]
  possibly additional pKa's: > 10.5
[5]; [16]
  MIC: 2 µg/mL (≈ 1.62 µM)
[5]; [17]
  MIC: 1 µg/mL (≈ 0.811 µM)
Streptococcus pneumoniae
  MIC: 0.5 µg/mL (≈ 0.405 µM)
Bacteroides vulgatis
  MIC: 32 µg/mL (≈ 25.9 µM)
Haemophilus influenzae; Haemophilus influenzae 251, 24 hours
  MIC: 2 µg/mL (≈ 1.62 µM)
Haemophilus influenzae; Haemophilus influenzae Brun, 24 hours
  MIC: 8 µg/mL (≈ 6.49 µM)
Propionibacterium acnes [7]
  MIC: ≤ 0.25 µg/mL
Peptococcus prevoti
  MIC: ≤ 0.25 µg/mL
Clostridium perfringens
  MIC: 0.5 µg/mL (≈ 0.405 µM)
[8]
  MIC: 64 µg/mL (≈ 51.9 µM)
S. pyogenes
  in vivo oral activity: > 300 mg./kg.×2
[9]
  MIC: ≤ 0.25 µg/mL
Bacteroides corrodens
  MIC: 64 µg/mL (≈ 51.9 µM)
[10]
  MIC: 1.0 µg/mL (≈ 0.811 µM)
Clostridium difficile [11]; Clostridium difficile 78
  MIC: 1.0 µg/mL (≈ 0.811 µM)
Clostridium difficile [11]; Clostridium difficile 107B
  MIC: 1.0 µg/mL (≈ 0.811 µM)
Clostridium difficile [11]; Clostridium difficile 111F
  MIC: 1.0 µg/mL (≈ 0.811 µM)
Clostridium difficile [11]; Clostridium difficile 1153
  MIC: 1.0 µg/mL (≈ 0.811 µM)
Clostridium difficile [11]; Clostridium difficile 2634
  MIC: 1.0 µg/mL (≈ 0.811 µM)
Clostridium difficile [11]; Clostridium difficile 3424-5B
  MIC: 1.0 µg/mL (≈ 0.811 µM)
Clostridium difficile [11]; Clostridium difficile 3816
  MIC: 1.0 µg/mL (≈ 0.811 µM)
Clostridium difficile [11]; Clostridium difficile 3950D
  MIC: 1.0 µg/mL (≈ 0.811 µM)
Clostridium difficile [11]; Clostridium difficile 6890
  MIC: 1.0 µg/mL (≈ 0.811 µM)
Clostridium difficile [11]; Clostridium difficile 8484
  MIC: 1.0 µg/mL (≈ 0.811 µM)
Clostridium difficile [11]; Clostridium difficile A-194
  MIC: 1.0 µg/mL (≈ 0.811 µM)
Clostridium difficile [11]; Clostridium difficile A-195
  MIC: 1.0 µg/mL (≈ 0.811 µM)
Clostridium difficile [11]; Clostridium difficile A-196
  MIC: 1.0 µg/mL (≈ 0.811 µM)
Clostridium difficile [11]; Clostridium difficile A-279
  MIC: 1.0 µg/mL (≈ 0.811 µM)
Clostridium difficile [11]; Clostridium difficile A-280
  MIC: 1.0 µg/mL (≈ 0.811 µM)
Clostridium difficile [11]; Clostridium difficile A-281
  MIC: 1.0 µg/mL (≈ 0.811 µM)
Clostridium difficile [11]; Clostridium difficile WAL-2112
  MIC: 1.0 µg/mL (≈ 0.811 µM)
Clostridium difficile [11]; Clostridium difficile WAL-3657
  MIC: 1.0 µg/mL (≈ 0.811 µM)
Clostridium difficile [11]; Clostridium difficile WAL-4268
  MIC: 1.0 µg/mL (≈ 0.811 µM)
Fusobacterium symbiosum
  MIC: 1.0 µg/mL (≈ 0.811 µM)
